Reference: patent publication US10189859B2, “Derivatives of 6-(2,3-dichlorophenyl)-1,2,4-triazin-5-amine” (Nektar Therapeutics, priority 2013, dated 2019)
“And” between values parts separate entries of the source, which are not always exact repeats. Identical values can stand only once. Like-named read-outs stand apart in the source and are kept apart here.

Target: Nav1.7 sodium channels (human SCN9A gene) (Homo sapiens (Human), UniProt Q15858)
Test: Automated patch clamp (IonWorks Barracuda) of Nav1.7 stably expressed in CHO cells
Type: cell-based
Experimental: The potencies of the compounds provided herein to block specific Na+ channels was measured using automated patch clamp electrophysiologically of Nav1.7 sodium channels (human SCN9A gene) stably expressed in CHO cells using the IonWorks™ Barracuda system. Currents were measured from the whole cell patch configuration. From a holding potential of −90 mV, membranes were subjected to a 200 ms pre-pulse to −120 mV, then pulsed to 0 mV to measure blockade of the tonic (resting) state. Inactivated state block was elicited by repolarization to −100 mV (20 ms pulse duration), followed by depolarization to 0 mV (20 ms pulse duration). Peak inward Na+ currents were measured in the presence of vehicle or various concentrations of the test compound to determine the percent block of current. Concentration-response relationships were used to calculate IC50 values for the illustrative compounds.

[1] = inactivated state block, CHO cells, read-out: Inactivated state IC50
[2] = tonic (resting) state block, CHO cells, read-out: Tonic state IC50

Nav1.7 sodium channels (human SCN9A gene), sequence (Q15858 whole entry): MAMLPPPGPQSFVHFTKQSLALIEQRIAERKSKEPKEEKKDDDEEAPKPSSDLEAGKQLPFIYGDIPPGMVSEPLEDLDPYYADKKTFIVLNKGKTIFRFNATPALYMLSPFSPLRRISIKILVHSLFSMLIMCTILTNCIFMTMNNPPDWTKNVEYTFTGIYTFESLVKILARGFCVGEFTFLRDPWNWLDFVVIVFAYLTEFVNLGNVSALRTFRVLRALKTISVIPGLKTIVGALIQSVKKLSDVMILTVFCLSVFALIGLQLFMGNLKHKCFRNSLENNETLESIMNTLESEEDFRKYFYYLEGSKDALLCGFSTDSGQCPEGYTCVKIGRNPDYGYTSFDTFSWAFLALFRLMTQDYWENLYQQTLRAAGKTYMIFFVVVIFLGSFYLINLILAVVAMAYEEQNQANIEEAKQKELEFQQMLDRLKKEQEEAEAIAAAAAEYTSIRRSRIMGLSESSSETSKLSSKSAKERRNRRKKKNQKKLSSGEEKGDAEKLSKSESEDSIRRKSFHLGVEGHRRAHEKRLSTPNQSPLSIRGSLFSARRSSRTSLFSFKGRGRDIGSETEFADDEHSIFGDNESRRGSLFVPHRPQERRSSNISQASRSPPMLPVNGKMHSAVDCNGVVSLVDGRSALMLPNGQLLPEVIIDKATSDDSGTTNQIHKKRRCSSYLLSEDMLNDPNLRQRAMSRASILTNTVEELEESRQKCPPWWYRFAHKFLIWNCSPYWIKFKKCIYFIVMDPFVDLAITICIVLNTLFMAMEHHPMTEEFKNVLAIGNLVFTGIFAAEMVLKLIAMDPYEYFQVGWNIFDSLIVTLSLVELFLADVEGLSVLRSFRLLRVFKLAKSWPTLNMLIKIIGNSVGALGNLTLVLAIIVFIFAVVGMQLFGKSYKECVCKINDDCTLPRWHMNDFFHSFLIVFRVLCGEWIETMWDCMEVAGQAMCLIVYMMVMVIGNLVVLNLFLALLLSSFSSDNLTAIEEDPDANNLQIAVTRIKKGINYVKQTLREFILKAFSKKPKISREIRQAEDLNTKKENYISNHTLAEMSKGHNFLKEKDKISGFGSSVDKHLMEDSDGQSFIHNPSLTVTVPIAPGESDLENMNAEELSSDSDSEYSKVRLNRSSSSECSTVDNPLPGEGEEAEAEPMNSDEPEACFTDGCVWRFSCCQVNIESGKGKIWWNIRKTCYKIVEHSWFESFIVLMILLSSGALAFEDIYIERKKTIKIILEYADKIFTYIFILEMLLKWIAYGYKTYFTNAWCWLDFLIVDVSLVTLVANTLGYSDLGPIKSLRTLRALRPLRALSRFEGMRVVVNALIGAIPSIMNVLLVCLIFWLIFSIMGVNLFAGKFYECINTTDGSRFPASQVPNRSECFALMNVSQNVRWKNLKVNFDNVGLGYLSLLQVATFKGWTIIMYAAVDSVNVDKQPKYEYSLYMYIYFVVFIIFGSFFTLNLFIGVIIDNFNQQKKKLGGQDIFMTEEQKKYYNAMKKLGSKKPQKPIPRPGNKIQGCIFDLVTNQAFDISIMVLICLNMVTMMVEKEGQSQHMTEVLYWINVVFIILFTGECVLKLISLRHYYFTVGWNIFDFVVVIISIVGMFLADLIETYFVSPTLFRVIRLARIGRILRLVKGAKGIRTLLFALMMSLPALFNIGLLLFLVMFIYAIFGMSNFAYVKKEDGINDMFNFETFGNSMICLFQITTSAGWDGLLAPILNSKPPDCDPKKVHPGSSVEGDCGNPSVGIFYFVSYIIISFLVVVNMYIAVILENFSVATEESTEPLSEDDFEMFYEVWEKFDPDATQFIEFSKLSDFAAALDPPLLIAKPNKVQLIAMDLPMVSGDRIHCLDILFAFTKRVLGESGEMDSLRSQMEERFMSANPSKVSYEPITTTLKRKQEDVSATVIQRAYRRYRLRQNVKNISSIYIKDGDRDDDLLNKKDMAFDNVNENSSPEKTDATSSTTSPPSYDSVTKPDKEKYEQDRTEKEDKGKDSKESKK

| Compound | IC50 [1] | IC50 [2] [µM] | IC50 (read-out: Inactivated state IC50) [µM] | IC50 (read-out: Tonic state IC50) [µM] |
| --- | --- | --- | --- | --- |
| COCCOCCOCC(O)CNc1nnc(-c2cccc(Cl)c2Cl)c(N)n1 (centres unmarked) [Compound 153, 1-((5-Amino-6-(2,3-dichlorophenyl)-1,2,4-triazin-3-yl)amino)-3-(2-(2-methoxyethoxy)ethoxy)propan-2-ol] | > 300 µM | > 200 |  |  |
| COC[C@@H](O)CN1CCC12CCCN(c1nnc(-c3cccc(Cl)c3Cl)c(N)n1)C2 (stereo partly drawn) [Compound 161, (2S)-1-(6-(5-amino-6-(2,3-dichlorophenyl)-1,2,4-triazin-3-yl)-1,6-diazaspiro[3.5]nonan-1-yl)-3-methoxypropan-2-ol] | 51.4 µM | 147 |  |  |
| COCCNCCOCCNc1nnc(-c2cccc(Cl)c2Cl)c(N)n1 [Compound 173, 6-(2,3-dichlorophenyl)-N3-(2-(2-((2-methoxyethyl)amino)ethoxy)ethyl)-1,2,4-triazine-3,5-diamine] | 214 µM | > 200 |  |  |
| CC(C)OCCOCCOCCNc1nnc(-c2cccc(Cl)c2Cl)c(N)n1 [Compound 209, 6-(2,3-dichlorophenyl)-N3-(2-(2-(2-isopropoxyethoxy)ethoxy)ethyl)-1,2,4-triazine-3,5-diamine] | < 50 µM | > 200 |  |  |
| Nc1nc(N2CCN(CC(O)CO)C[C@H]2CO)nnc1-c1cccc(Cl)c1Cl (stereo partly drawn) [Compound 140, 3-((S)-4-(5-amino-6-(2,3-dichlorophenyl)-1,2,4-triazin-3-yl)-3-(hydroxymethyl)piperazin-1-yl)propane-1,2-diol] |  |  | > 300 | > 200 |
| COCCOCCOCC(C)CNc1nnc(-c2cccc(Cl)c2Cl)c(N)n1 (centres unmarked) [Compound 177, 6-(2,3-dichlorophenyl)-N3-(3-(2-(2-methoxyethoxy)ethoxy)-2-methylpropyl)-1,2,4-triazine-3,5-diamine] | < 50 µM | > 200 |  |  |
| Nc1nc(N2CCN(C[C@H](O)COCC3CCC3)CC2)nnc1-c1cccc(Cl)c1Cl [Compound 80, (2S)-1-{4-[5-Amino-6-(2,3-dichlorophenyl)-1,2,4-triazin-3-yl]piperazin-1-yl}-3-(cyclobutylmethoxy)propan-2-ol] | < 50 µM | 70 |  |  |
| CN(CCNc1nnc(-c2cccc(Cl)c2Cl)c(N)n1)C[C@H](O)C(F)(F)F [Compound 148, (S)-3-((2-((5-amino-6-(2,3-dichlorophenyl)-1,2,4-triazin-3-yl)amino)ethyl)(methyl)amino)-1,1,1-trifluoropropan-2-ol] | < 50 µM | 149 |  |  |
| CN(CCN(C)c1nnc(-c2cccc(Cl)c2Cl)c(N)n1)C(=O)COCC(N)=O [Compound 192, 2-(2-amino-2-oxoethoxy)-N-(2-((5-amino-6-(2,3-dichlorophenyl)-1,2,4-triazin-3-yl)(methyl)amino)ethyl)-N-methylacetamide] | > 300 µM | > 200 |  |  |
| COC[C@@H](O)CN(C)CC1CN(c2nnc(-c3cccc(Cl)c3Cl)c(N)n2)C1 [Compound 160, (S)-1-(((1-(5-amino-6-(2,3-dichlorophenyl)-1,2,4-triazin-3-yl)azetidin-3-yl)methyl)(methyl)amino)-3-methoxypropan-2-ol] | 292 µM | > 200 |  |  |
| CS(=O)(=O)CCOCCNc1nnc(-c2cccc(Cl)c2Cl)c(N)n1 [Compound 176, 6-(2,3-dichlorophenyl)-N3-(2-(2-(methylsulfonyl)ethoxy)ethyl)-1,2,4-triazine-3,5-diamine] | 267 µM and 181 µM | > 200 |  |  |
| COC[C@@H](O)CN[C@@H]1CCN(c2nnc(-c3cccc(Cl)c3Cl)c(N)n2)C1 [Compound 159, (S)-1-(((R)-1-(5-amino-6-(2,3-dichlorophenyl)-1,2,4-triazin-3-yl)pyrrolidin-3-yl)amino)-3-methoxypropan-2-ol] | 289 µM | > 200 |  |  |
| CC(C)(C)OCC(O)CN1CCN(c2nnc(-c3cccc(Cl)c3Cl)c(N)n2)[C@H](CO)C1 (stereo partly drawn) [Compound 139, 1-((S)-4-(5-amino-6-(2,3-dichlorophenyl)-1,2,4-triazin-3-yl)-3-(hydroxymethyl)piperazin-1-yl)-3-(tert-butoxy)propan-2-ol] | 103 µM | > 200 |  |  |
